Test results reported in patent US20040072725A1, “Remedies/preventives for inflammatory diseases” (AJINOMOTO CO. INC, priority 2001, published 2004).

Tests used:
[1] = system: collagen-induced arthritis (CIA) in DBA-1 mice; assay: Murine collagen-induced arthritis (CIA); format: in vivo
Description: CIA induction in mice was attained by sensitizing mice with type-II collagen to trigger experimental arthritis (see Courtenay et al., Nature, 283, 666-668, 1980).
An emulsion having an antigen amount of 100 μg/0.1 ml/mouse was intracutaneously injected into the tail root of each mouse. Three weeks after the first sensitization, the same emulsion also having an antigen amount of 100 μg/0.1 ml/mouse was again intracutaneously injected into the tail root of each mouse for boosting (additional) immunization, in the same manner as that for the first sensitization. About 4 days after the additional immunization, the mice were diagnosed as being arthritic, in which reddish edema was observed. […] The level of the edema in the mice was grouped into 4 ranks, and every limb (in four limbs) of each mouse was visually checked. […]
Collagen-induced arthritis (CIA) was induced in mice in the same manner as above, and the mice were tested also in the same manner as above. […] The mice were judged on day 14 after the boosting (additional) immunization.
The test condition was the same as above. As a result, in the control group, four of the five mice developed clinical arthritis in 14 days after the second subcutaneous administration; but in the ornithine-administered group, no mice developed it within 14 days after the second subcutaneous administration.
However, it was 0 in the combined administration group.

[2] = system: adjuvant-induced arthritis (AA) in Lewis rats; settings: 0.03% ornithine oral
Description: AA induction in rats was attained in a well-known laboratory method (see Taurog et al., Meth. Enzymolo., 162, 339-355, 1988). Specifically, 50 μ/rat of 1% (w/v) adjuvant was administered to the bottom of the right foot of each rat. One, two and three weeks after the administration, the volume of the edema in the bottom of the right foot of each rat was measured by the use of a device for measuring rats' hind leg (foot) edema.
The dose is the same as in Example 1.
On day 7, 14 and 21 after the adjuvant administration, the rats were checked for edema.

[3] = system: SKG mice, model mice with spontaneously-developed chronic rheumatism (rheumatoid arthritis); assay: SKG mice with spontaneously-developed chronic rheumatism; format: in vivo
Source text: Regarding the score, 0 indicates no change; 0.1 indicates reddish edema seen in the finger joints of the mice; 0.5 indicates edema seen in the joints of the four limbs thereof; and 1.0 indicates serious edema seen in the joints thereof. For these, the mice were visually checked. The total of the scores of all the four limbs of each mouse is plotted in the graph.
An SKG mouse model is known as the naturally-occurring model. This is found in BALB/c mouse colonies as a mouse that develops clinical arthritis, and it is sustained through sibship mating. Regarding the thus-mated SKG mice, when they are judged at 6-month age, almost all mice have some clinical arthritis (joint edema) in any of four limb joints. The arthritis is not by vertical/horizontal infection with microorganisms but is by autosomal recessive inheritance mutation. The clinical arthritis (joint edema) starts in around 2 months after the birth essentially at the finger joints of the forepaws, and thereafter extends to the joints of the hands and the joints of the legs. After 6 months, most of the mice develop arthrosclerosis (articular rigidity). From the pathohistological viewpoint, the disease starts from synovitis to periarthritis and further toward pannus formation and cartilage/subcartilaginous bone tissue fracture and fibrillation. […] This is an extremely interesting model for studying the mechanism of delayed inflammations. As an engineering model, there is known a transgenic (tg) mouse with a Tax gene of a human T cell leukemia virus-1 (HTLV-1) inserted therein. The tg mouse has the transgene expressing in the local joints, in which inflammatory cytokines such as IL-1α, IL-1β, IL-6, TNF-α, TGF-β, IFN-γ and IL-2, as well as MHC gene are activated. […] The tg mouse is a significant model in studies where the influence of Tax gene that will be probably because of its transactivation on the production of inflammatory cytokines or the influence of viruses on the mechanism of autoimmune reaction, and the like are specifically investigated.
The pharmaceutical potency of the above-mentioned BCAA, mixture of branched amino acids, was investigated on SKG mice, model mice with spontaneously-developed chronic rheumatism (articular rheumatism). In the same manner as in Example 2, BCAA was orally administered to 4-weeks-old (before RA development) or 12-weeks-old (after RA development), male SKG mice. The dose to each mouse was 250 mg/liter.

[4] = 0.03% L-ornithine oral from 4 weeks old, mice having turned 20 weeks old

For `NCCC[C@H](N)C(=O)O` [Ornithine, L-ornithine], the “Arthritis Score” value ([1]; L-ornithine 0.006 wt.% aqueous solution, day 14 after boosting immunization) was 1.0, the “Arthritis Score” value ([1]; L-ornithine 0.01% alone, oral in drinking water, day 12 after the second subcutaneous administration) was 0.8 and the “mice showing edema in leg joints” value ([1]; L-ornithine 0.01% single administration, day 12 after the second subcutaneous administration) was “three of the ten”. The “Arthritis Score” value ([1]; L-ornithine 0.03 wt.% aqueous solution, day 14 after boosting immunization) was 0.6, the “dose dependence of effect on CIA (in words)” value ([1]; L-ornithine 0.15%, 0.03%, 0.006% aqueous solutions) was “dose-response (dependent) effect of retarding clinical arthritis” and the “Arthritis Score” value ([1]; L-ornithine 0.15 wt.% aqueous solution, day 14 after boosting immunization) was 0.2. For the same compound, the “effect of feeding as solid feed on clinical arthritis (in words)” value ([1]; L-ornithine in solid feed) was “effective for retarding clinical arthritis”, the “mice that developed clinical arthritis” value ([1]; L-ornithine in solid feed, within 14 days after the second subcutaneous administration) was “no mice” and the “effect on CIA (in words)” value ([1]; ornithine 0.03% oral) was “significantly retards CIA”. For the same compound, the “Arthritis Score” value ([1]; ornithine 0.03% oral, day 0 after antigenation) was 0, the “Arthritis Score” value ([1]; ornithine 0.03% oral, day 4 after antigenation) was 0 and the “Arthritis Score” value ([1]; ornithine 0.03% oral, day 6 after antigenation) was 0. For the same compound, the “Arthritis Score” value ([1]; ornithine 0.03% oral, day 8 after antigenation) was 0, the “Arthritis Score” value ([1]; ornithine 0.03% oral, day 10 after antigenation) was 0 and the “Arthritis Score” value ([1]; ornithine 0.03% oral, day 12 after antigenation) was 0. For the same compound, the “Arthritis Score” value ([1]; ornithine 0.03% oral, day 14 after antigenation) was 0, the “tested mice showing edema” value ([1]; ornithine 0.03% oral, up to day 13 after the second subcutaneous administration) was “none” and the “arthritis (joint) score” value ([1]; ornithine 0.03% oral, whole observation (control followed up to day 17)) was “zero”. For the same compound, the “effect on clinical arthritis in AA models (in words)” value [2] was “significantly retards clinical arthritis”, the “effect on clinical arthritis (joint edema) in SKG mice (in words)” value ([3]; 0.03% L-ornithine oral) was “significantly retard the clinical arthritis (joint edema)” and the arthritis score average ([3]; 0.03% L-ornithine oral from 4 weeks old, male SKG mice having turned 11 weeks old) was 0.18. For the same compound, the “arthritis (joint) score average” value [3, 4] was 2.0, the “score reduction as compared with the control group” value [3, 4] was 35% and the “disease development (in words)” value ([3]; 0.03% L-ornithine oral started at 8 weeks old, effect lower than with start at 4 weeks old) was “the disease development was depressed in 2 weeks”. The “dose dependence of effect in SKG mice (in words)” value ([3]; L-ornithine 0.15%, 0.03%, 0.006% aqueous solutions, FIG. 3) was “dose-dependent (response) effect of retarding clinical arthritis”.
